Assay results: patent US10011629B2, “Nucleoside analogs for treatment of the flaviviridae family of viruses and cancer” (Cocrystal Pharma, Inc., priority 2015, dated 2018)

Tests used:
[1] = biological target: HCV NS5B RNA polymerase GT 3a WT; test: NS5B enzyme assay, GT 3a WT; assay type: biochemical; conditions: NS5B enzyme GT 3a WT; average of two to three replicates ± SD
Procedure: The 21-amino-acid C-terminal truncated HCV NS5B RNA polymerase can be cloned from the HCV replicon cells, modified with a six-His-terminal tail, expressed in a prokaryotic expression vector (pQE60; Qiagen), and subsequently purified over a Talon cobalt affinity resin column (Clontech, Palo Alto, Calif.).^1 Purification can be monitored by SDS-PAGE and Western blotting. The resulting purified protein can be dialyzed overnight against 50 mM sodium phosphate (pH 8.0)-300 mM sodium chloride-0.5% Triton X-100-50% glycerol-2 mM dithiothreitol. The dialysate maintains consistent activity for more than 6 months when stored at −20° C. Protein can be quantified with the Coomassie Plus protein assay reagent (Pierce) by using a bovine serum albumin standard from the same supplier.
NS5B RNA polymerase reaction can be studied by monitoring the incorporation of ^32P-labeled UMP into the newly synthesized RNA strand by using minus IRES as the template. […] After the membrane is rinsed with water followed by rinsing with ethanol, the dots can be cut out and the radioactivity counted in a Packard liquid scintillation counter. The amount of product can be calculated on the basis of the total radioactivity in the reaction mixture. The rate of the reaction can be determined from the slope of the time course of product formation. […]

[2] = biological target: human mitochondrial RNA polymerase (POLRMT) (Homo sapiens, UniProt O00411); test: In vitro human mitochondrial RNA polymerase (POLRMT) incorporation assay; conditions: 100 μM rNTP, 2 hr, normalized to natural rNTP
Sequence of human mitochondrial RNA polymerase (POLRMT) (O00411 42-1230): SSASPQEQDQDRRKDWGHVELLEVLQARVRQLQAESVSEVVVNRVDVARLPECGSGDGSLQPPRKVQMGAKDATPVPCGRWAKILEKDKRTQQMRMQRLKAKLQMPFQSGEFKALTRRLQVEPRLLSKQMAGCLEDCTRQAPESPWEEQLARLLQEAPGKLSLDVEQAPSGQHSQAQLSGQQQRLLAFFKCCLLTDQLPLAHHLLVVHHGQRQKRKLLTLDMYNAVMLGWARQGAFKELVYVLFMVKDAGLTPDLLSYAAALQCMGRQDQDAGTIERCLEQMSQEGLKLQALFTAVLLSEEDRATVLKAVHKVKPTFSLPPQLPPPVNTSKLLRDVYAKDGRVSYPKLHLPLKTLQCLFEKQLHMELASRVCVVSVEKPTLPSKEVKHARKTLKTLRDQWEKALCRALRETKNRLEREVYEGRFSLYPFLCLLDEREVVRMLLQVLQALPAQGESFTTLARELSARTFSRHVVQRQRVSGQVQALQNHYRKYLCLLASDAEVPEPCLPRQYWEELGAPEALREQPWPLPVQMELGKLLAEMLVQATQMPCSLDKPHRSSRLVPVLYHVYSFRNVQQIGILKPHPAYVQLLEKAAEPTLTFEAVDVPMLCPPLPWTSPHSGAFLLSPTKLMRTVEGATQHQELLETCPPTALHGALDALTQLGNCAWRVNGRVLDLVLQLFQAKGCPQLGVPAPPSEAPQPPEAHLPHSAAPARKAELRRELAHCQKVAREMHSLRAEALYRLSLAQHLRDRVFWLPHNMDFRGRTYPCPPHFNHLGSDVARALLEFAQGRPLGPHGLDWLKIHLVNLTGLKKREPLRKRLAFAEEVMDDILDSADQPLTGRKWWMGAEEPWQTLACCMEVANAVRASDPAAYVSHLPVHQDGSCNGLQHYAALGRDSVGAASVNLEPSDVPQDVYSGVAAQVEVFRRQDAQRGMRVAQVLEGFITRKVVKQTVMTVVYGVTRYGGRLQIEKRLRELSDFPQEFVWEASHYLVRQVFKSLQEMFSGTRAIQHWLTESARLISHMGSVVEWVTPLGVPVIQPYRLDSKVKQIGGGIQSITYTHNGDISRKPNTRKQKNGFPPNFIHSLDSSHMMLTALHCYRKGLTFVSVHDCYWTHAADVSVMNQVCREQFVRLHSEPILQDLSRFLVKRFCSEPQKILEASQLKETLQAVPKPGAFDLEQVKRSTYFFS
Procedure: 125 nM of POLRMT was incubated with 500 nM of 5′-radiolabled RNA/DNA hybrid, 10 mM MgCl2 and 100 μM of the corresponding nucleoside triphosphate. For non-nucleoside analogs, 100 μM of inhibitor was added at the same time as 100 μM UTP. Incorporation was allowed to proceed for 2 h at 30° C. and reactions were stopped by the addition of 10 mM EDTA and formamide. Samples were visualized on 20% denaturing polyacrylamide gel. Data were analyzed by normalizing the product fraction for each nucleoside triphosphate analog to that of the corresponding natural nucleoside triphosphate.
100 μM of each rNTP was incubated with POLRMT enzyme and the appropriate DNA/RNA primer/template hybrid and incorporation was evaluated at 2 hr. Nucleoside triphosphate analog incorporation was normalized to that of natural rNTP substrates.

[3] = biological target: T1, HCV NS5B RNA polymerase GT 3a L159F (Hepatitis C virus genotype 3a, UniProt Q81258, L2589F); test: NS5B enzyme assay, GT 3a L159F; assay type: biochemical; conditions: NS5B enzyme GT 3a L159F; average of two to three replicates ± SD
T1 construct: The 21-amino-acid C-terminal truncated HCV NS5B RNA polymerase; His6; made in house
T1 sequence (Q81258 2431-3000 L2589F): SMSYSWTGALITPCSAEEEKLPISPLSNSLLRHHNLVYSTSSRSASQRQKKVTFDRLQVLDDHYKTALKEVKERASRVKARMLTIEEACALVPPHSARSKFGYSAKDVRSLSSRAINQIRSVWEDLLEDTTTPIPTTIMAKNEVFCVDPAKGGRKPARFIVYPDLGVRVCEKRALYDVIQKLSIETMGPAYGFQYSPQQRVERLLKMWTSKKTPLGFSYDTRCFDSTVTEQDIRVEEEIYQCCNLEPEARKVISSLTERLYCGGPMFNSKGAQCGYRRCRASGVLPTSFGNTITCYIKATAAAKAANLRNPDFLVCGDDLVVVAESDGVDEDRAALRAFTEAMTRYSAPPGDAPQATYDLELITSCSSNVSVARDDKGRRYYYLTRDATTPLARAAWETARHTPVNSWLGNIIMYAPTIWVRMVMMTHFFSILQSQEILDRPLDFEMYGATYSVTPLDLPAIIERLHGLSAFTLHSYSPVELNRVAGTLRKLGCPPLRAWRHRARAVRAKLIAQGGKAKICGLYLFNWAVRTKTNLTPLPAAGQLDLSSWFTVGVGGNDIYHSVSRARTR
Procedure: The 21-amino-acid C-terminal truncated HCV NS5B RNA polymerase can be cloned from the HCV replicon cells, modified with a six-His-terminal tail, expressed in a prokaryotic expression vector (pQE60; Qiagen), and subsequently purified over a Talon cobalt affinity resin column (Clontech, Palo Alto, Calif.).^1 Purification can be monitored by SDS-PAGE and Western blotting. The resulting purified protein can be dialyzed overnight against 50 mM sodium phosphate (pH 8.0)-300 mM sodium chloride-0.5% Triton X-100-50% glycerol-2 mM dithiothreitol. […] Protein can be quantified with the Coomassie Plus protein assay reagent (Pierce) by using a bovine serum albumin standard from the same supplier.

## C[C@@]1(F)[C@H](O)[C@@H](COP(=O)(O)OP(=O)(O)OP(=O)(O)O)O[C@H]1n1ccc(=O)[nH]c1=O [2′-Me-2′-F-UTP]
[1]
  EC50: 7.2 ± 2.1 µM
[2]
  incorporation by POLRMT as compared to natural UTP: 3.1%
[3]
  EC50: 5.2 ± 1.4 µM
